Assay results published in patent US11452717B2, “Small molecule activators of nicotinamide phosphoribosyltransferase (NAMPT) and uses thereof” (Sanford Burnham Prebys Medical Discovery Institute, priority 2017, dated 2022).

Target: NAMPT enzyme (Homo sapiens (Human), UniProt P43490)
Assay: Enzyme Assay and NMN Detection (NAMPT reaction, fluorescence detection of NMN)
Assay type: biochemical
Settings: Table B-1; NAMPT activation, NMN formation
In short: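 Reaction in 50 mM HEPES pH 7.5, 5 mM MgCl2, 0.1% Prionex, 0.005% Tween 20, 1 mM TCEP at room temperature, with 16 nM NAMPT, 120 uM ATP, 5 uM nicotinamide, 6.25 uM PRPP, 0.04 U/ml pyrophosphatase for 2 h. Stopped with acetophenone/KOH then formic acid; NMN quantified by fluorescence (ex380/em460) against calibration curve.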

Chain of NAMPT enzyme (P43490 whole entry, species assumed): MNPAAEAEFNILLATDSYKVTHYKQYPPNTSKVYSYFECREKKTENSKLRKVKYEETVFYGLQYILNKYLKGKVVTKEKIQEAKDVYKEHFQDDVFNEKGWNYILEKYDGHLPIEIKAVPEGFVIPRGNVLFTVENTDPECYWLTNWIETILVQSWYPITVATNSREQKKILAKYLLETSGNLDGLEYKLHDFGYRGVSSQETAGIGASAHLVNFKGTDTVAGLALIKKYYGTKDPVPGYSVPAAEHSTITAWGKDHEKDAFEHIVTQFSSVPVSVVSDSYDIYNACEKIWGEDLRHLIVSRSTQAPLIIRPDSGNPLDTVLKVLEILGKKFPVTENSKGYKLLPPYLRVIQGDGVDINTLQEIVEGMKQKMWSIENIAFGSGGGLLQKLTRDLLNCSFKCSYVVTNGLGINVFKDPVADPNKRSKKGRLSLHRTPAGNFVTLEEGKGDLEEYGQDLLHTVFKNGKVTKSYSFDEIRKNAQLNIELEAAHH

Row | EC50 | SMILES
1 | 100 to 2000 nM | O=C(NCc1cn[nH]c1)Nc1ccc(S(=O)(=O)Nc2ccccc2)cc1 [N-Phenyl-4-[3-(1H-pyrazol-4-ylmethyl)-ureido]-benzenesulfonamide]
2 | 100 to 2000 nM | O=C(NCc1cnco1)Nc1ccc(NS(=O)(=O)c2ccccc2)cc1 [N-[4-(3-Oxazol-5-ylmethyl-ureido)-phenyl]-benzenesulfonamide]
3 | < 100 nM | O=C(NCc1cn[nH]c1)Nc1ccc(NS(=O)(=O)c2ccccc2)cc1 [N-{4-[3-(1H-Pyrazol-4-ylmethyl)-ureido]-phenyl}-benzenesulfonamide]

Same assay, conditions: Table B-2; NAMPT activation, NMN formation

Row | EC50 | SMILES
4 | < 100 nM | CN(Cc1ccccc1OC(F)(F)F)S(=O)(=O)c1ccc(NC(=O)NCc2ccncc2)cc1 [N-Methyl-4-(3-pyridin-4-ylmethyl-ureido)-N-(2-trifluoromethoxy-benzyl)-benzenesulfonamide]
5 | 2000 to 5000 nM | CNS(=O)(=O)c1ccc(NC(=O)NCc2ccncc2)cc1 [N-Methyl-4-(3-pyridin-4-ylmethyl-ureido)-benzenesulfonamide]
6 | < 100 nM | Cc1ccccc1CN(C)S(=O)(=O)c1ccc(NC(=O)NCc2ccncc2)cc1 [N-Methyl-N-(2-methyl-benzyl)-4-(3-pyridin-4-ylmethyl-ureido)-benzenesulfonamide]
7 | 100 to 2000 nM | CN(c1ccc(NC(=O)NCc2ccncc2)cc1)S(=O)(=O)c1ccccc1 [N-Methyl-N-[4-(3-pyridin-4-ylmethyl-ureido)-phenyl]-benzenesulfonamide]
8 | 100 to 2000 nM | CN(c1ccccc1)S(=O)(=O)Cc1ccc(NC(=O)NCc2ccncc2)cc1 [N-Methyl-N-phenyl-C-[4-(3-pyridin-4-ylmethyl-ureido)-phenyl]-methanesulfonamide]
9 | 100 to 2000 nM | O=C(NCc1ccncc1)Nc1ccc(S(=O)(=O)Nc2ccccc2)cc1 [N-Phenyl-4-(3-pyridin-4-ylmethyl-ureido)-benzenesulfonamide]
10 | 100 to 2000 nM | O=C(NCc1ccncc1)Nc1ccc(CS(=O)(=O)Nc2ccccc2)cc1 [N-Phenyl-C-[4-(3-pyridin-4-ylmethyl-ureido)-phenyl]-methanesulfonamide]
11 | 100 to 2000 nM | CCCNS(=O)(=O)c1ccc(NC(=O)NCc2ccncc2)cc1 [N-Propyl-4-(3-pyridin-4-ylmethyl-ureido)-benzenesulfonamide]
12 | > 20000 nM | O=C(NCc1ccncc1)Nc1ccc(S(=O)(=O)Nc2ccccn2)cc1 [N-Pyridin-2-yl-4-(3-pyridin-4-ylmethyl-ureido)-benzenesulfonamide]
13 | 100 to 2000 nM | O=C(NCc1ccncc1)Nc1ccc(S(=O)(=O)NCc2ccncc2)cc1 [N-Pyridin-4-ylmethyl-4-(3-pyridin-4-ylmethyl-ureido)-benzenesulfonamide]
14 | 100 to 2000 nM | CN1CCN(CCNS(=O)(=O)c2ccc(NC(=O)NCc3ccncc3)cc2)CC1 [N-[2-(4-Methyl-piperazin-1-yl)-ethyl]-4-(3-pyridin-4-ylmethyl-ureido)-benzenesulfonamide]
15 | < 100 nM | O=C(NCc1ccccc1)Nc1ccc(NS(=O)(=O)Cc2ccccc2)cc1 [N-[4-(3-Benzyl-ureido)-phenyl]-C-phenyl-methanesulfonamide]
16 | < 100 nM | O=C(NCc1ccncc1)Nc1ccc(NS(=O)(=O)c2ccccc2)cc1 [N-[4-(3-Pyridin-4-ylmethyl-ureido)-phenyl]-benzenesulfonamide]
17 | 5000 to 20000 nM | O=C(NCc1ccncc1)Nc1cccc(S(=O)(=O)NCc2ccccc2)c1 [N-benzyl-3-(3-(pyridin-4-ylmethyl)ureido)benzenesulfonamide]
18 | 100 to 2000 nM | CN(Cc1ccccc1)C(=O)c1ccc(NC(=O)NCc2ccncc2)cc1 [N-benzyl-N-methyl-4-(3-(pyridin-4-ylmethyl)ureido)benzamide]
19 | 100 to 2000 nM | CCCCNC(=O)c1ccc(NC(=O)NCc2ccncc2)cc1 [N-butyl-4-(3-(pyridin-4-ylmethyl)ureido)benzamide]
20 | 5000 to 20000 nM | O=C(NCc1ccncc1)Nc1ccc(C(=O)NC2CCC2)cc1 [N-cyclobutyl-4-(3-(pyridin-4-ylmethyl)ureido)benzamide]

Row | EC50 | SMILES
21 | 2000 to 5000 nM | O=C(NCc1ccncc1)Nc1ccc(C(=O)NC2CCCCC2)cc1 [N-cyclohexyl-4-(3-(pyridin-4-ylmethyl)ureido)benzamide]
22 | > 20000 nM | O=C(NCc1ccncc1)Nc1cccc(S(=O)(=O)NC2CCCC2)c1 [N-cyclopentyl-3-(3-(pyridin-4-ylmethyl)ureido)benzenesulfonamide]
23 | 5000 to 20000 nM | O=C(NCc1ccncc1)Nc1ccc(C(=O)NC2CCCC2)cc1 [N-cyclopentyl-4-(3-(pyridin-4-ylmethyl)ureido)benzamide]
24 | 100 to 2000 nM | O=C(NCc1ccncc1)Nc1ccc(S(=O)(=O)NC2CCCC2)cc1 [N-cyclopentyl-4-(3-pyridin-4-ylmethyl-ureido)-benzenesulfonamide]
25 | 5000 to 20000 nM | CCN(C)C(=O)c1ccc(NC(=O)NCc2ccncc2)cc1 [N-ethyl-N-methyl-4-(3-(pyridin-4-ylmethyl)ureido)benzamide]
26 | 100 to 2000 nM | CC(C)CNC(=O)c1ccc(NC(=O)NCc2ccncc2)cc1 [N-isobutyl-4-(3-(pyridin-4-ylmethyl)ureido)benzamide]
27 | < 100 nM | CN(Cc1ccccc1C(F)(F)F)S(=O)(=O)c1ccc(NC(=O)NCc2ccncc2)cc1 [N-methyl-4-(3-(pyridin-4-ylmethyl)ureido)-N-(2-(trifluoromethyl)benzyl)benzenesulfonamide]
28 | 5000 to 20000 nM | Cc1ccc(N(C)C(=O)c2ccc(NC(=O)NCc3ccncc3)cc2)cc1 [N-methyl-4-(3-(pyridin-4-ylmethyl)ureido)-N-(p-tolyl)benzamide]
29 | < 100 nM | CN(c1ccc(NC(=O)NCc2ccncc2)cc1)S(=O)(=O)Cc1ccccc1 [N-methyl-C-phenyl-N-[4-(3-pyridin-4-ylmethyl-ureido)-phenyl]-methanesulfonamide]
30 | 5000 to 20000 nM | CCCN(C)C(=O)c1ccc(NC(=O)NCc2ccncc2)cc1 [N-methyl-N-propyl-4-(3-(pyridin-4-ylmethyl)ureido)benzamide]
31 | 100 to 2000 nM | CC(C)(C)CNS(=O)(=O)c1ccc(NC(=O)NCc2ccncc2)cc1 [N-neopentyl-4-(3-pyridin-4-ylmethyl-ureido)-benzenesulfonamide]
32 | > 20000 nM | O=C(NCc1ccncc1)Nc1cccc(S(=O)(=O)NCCc2ccccc2)c1 [N-phenethyl-3-(3-(pyridin-4-ylmethyl)ureido)benzenesulfonamide]
33 | 100 to 2000 nM | O=C(NCc1ccncc1)Nc1ccc(C(=O)NCCc2ccccc2)cc1 [N-phenethyl-4-(3-(pyridin-4-ylmethyl)ureido)benzamide]
34 | 2000 to 5000 nM | O=C(NCc1ccncc1)Nc1ccc(C(=O)Nc2ccccc2)cc1 [N-phenyl-4-(3-(pyridin-4-ylmethyl)ureido)benzamide]
35 | 2000 to 5000 nM | CCCNC(=O)c1ccc(NC(=O)NCc2ccncc2)cc1 [N-propyl-4-(3-(pyridin-4-ylmethyl)ureido)benzamide]
36 | 100 to 2000 nM | O=C(NCc1ccncc1)Nc1ccc(S(=O)(=O)N2CCc3cc(C(F)(F)F)ccc3C2)cc1 [Pyridin-4-ylmethyl-3-[4-(6-trifluoromethyl-3,4-dihydro-1H-isoquinoline-2-sulfonyl)-phenyl]-urea]

Same assay, conditions: Table B-6; NAMPT activation, NMN formation

Row | EC50 | SMILES
37 | < 100 nM | Cc1cccc(CS(=O)(=O)Nc2ccc(NC(=O)NCc3ccncc3)cc2)c1 [N-[4-(3-Pyridin-4-ylmethyl-ureido)-phenyl]-C-m-tolyl-methanesulfonamide]
38 | < 100 nM | Cc1ccc(CS(=O)(=O)Nc2ccc(NC(=O)NCc3ccncc3)cc2)cc1 [N-[4-(3-Pyridin-4-ylmethyl-ureido)-phenyl]-C-p-tolyl-methanesulfonamide]
